Results taken from US11292801B2, “Calpain modulators and therapeutic uses thereof” (Blade Therapeutics, Inc., priority 2016, dated 2022).
Where two headings read alike, the source gives them in different places.

Settings: rcm bond

In the case of `COC(=O)[C@@H]1Cc2ccc(cc2)CC=CCc2cccc(c2)-c2ccn(n2)-c2ncccc2C(=O)N1`, the ring closure, yield of all isomers (from C=CCc1ccc(C[C@H](NC(=O)c2cccnc2-n2ccc(-c3cccc(CC=C)c3)n2)C(=O)OC)cc1, Hoveyda-Grubbs catalyst 1st generation, DCE, 4.94 mM, 90.0 °C, 64.0 h) is reported as 43.6%.
In the case of `CON(C)C(=O)[C@@H]1CC=CCCCCCc2ncccc2C(=O)N1`, the ring closure, yield of all isomers (from C=CCCCCCc1ncccc1C(=O)N[C@@H](CC=C)C(=O)N(C)OC, Grubbs catalyst 2nd generation, DCE, 9.93 mM, 95.0 °C, 48.0 h) is reported as 65.1%.
`CON(C)C(=O)[C@@H]1CC=CCCCCCc2ccccc2C(=O)N1` showed a ring closure, yield of all isomers (from C=CCCCCCc1ccccc1C(=O)N[C@@H](CC=C)C(=O)N(C)OC, Grubbs 2nd generation catalyst, DCM, 6.37 mM, 48.0 °C, 16.0 h) of 49.4%.
Compound `CON(C)C(=O)[C@@H]1CC=CCCOc2ccnc(c2)-c2ccccc2C(=O)N1` has a ring closure, yield of all isomers (from C=CCCOc1ccnc(-c2ccccc2C(=O)N[C@@H](CC=C)C(=O)N(C)OC)c1, Zhan Catalyst-1B, DCE, 2.87 mM, 95.0 °C, 16.0 h) of 43.4%.
In the case of `COC(=O)[C@@H]1Cc2ccc(cc2)CC=CCc2ccc3nn(cc3c2)-c2ncccc2C(=O)N1`, the ring closure, yield of all isomers (from C=CCc1ccc(C[C@H](NC(=O)c2cccnc2-n2cc3cc(CC=C)ccc3n2)C(=O)OC)cc1, Zhan catalyst-1B, DCE, 3.09 mM, 90.0 °C, 14.0 h) is reported as 19.4%.
In the case of `CON(C)C(=O)[C@@H]1CC=CCOCCOCc2ccccc2C(=O)N1`, the ring closure, yield of all isomers (from C=CCOCCOCc1ccccc1C(=O)N[C@@H](CC=C)C(=O)N(C)OC, Grubbs 2nd generation catalyst, DCE, 6.64 mM, 80.0 °C, 10.0 h) is reported as 86.7% and the ring closure, yield of all isomers (from C=CCOCCOCc1ccccc1C(=O)N[C@@H](CC=C)C(=O)N(C)OC, Grubbs II, 1,2-dichloroethane, 6.64 mM, 80.0 °C, 10.0 h) is reported as 91.3%.
